# Test results from ChEMBL document CHEMBL1201862, “PubChem BioAssay data set” (2004).
# Activity calls are given as the source filed them.
# What was measured:
# Vero = Vero cell cytotoxicity, cytotoxicity control for flavivirus capping enzyme inhibitors (AID 588742); type: functional; conditions: Chlorocebus sabaeus
# [1] = target: Glucose-6-phosphate 1-dehydrogenase (Homo sapiens, UniProt P11413); assay: human G6PD enzyme inhibitors, dose response, selectivity assay for P. falciparum G6PD inhibitor project, biochemical, fluorescence (AID 504792); type: functional
# Genome polyprotein = Genome polyprotein (dengue virus type 2, UniProt P29990); assay: Dengue-2 NS5 methyltransferase inhibitors, primary screen, biochemical, confirmation dose response (AID 588689); type: functional
# [2] = target: Eukaryotic translation initiation factor 4E (Mus musculus, UniProt P63073); assay: eIF4E–eIF4G protein interaction inhibitors, dose response, biochemical, TR-FRET (AID 855); type: functional;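 note: potency for disrupting eIF4E binding to eIF4GI seen as loss of FRET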
# [3] = Luminescence Cell-Based Dose Response HTS to Identify Activators of Luciferase Translation or Activity in H4 […] Cells. [Related pubchem assays: 1829 (Project Summary), 1814 (Primary HTS)]; type: functional
# H4 = assay: Luminescence Cell-Based Dose Response HTS to Identify Activators of 5'UTR Stem-Loop Driven Prion Protein mRNA Translation in H4 Neuroglioblastoma Cells. [Related pubchem assays: 1829 (Project Summary), 1814 (Primary HTS)]; type: functional; conditions: Homo sapiens
# [4] = Luminescence Cell-Based Dose Confirmation HTS to Identify Activators of 5'UTR Stem-Loop Driven Alpha-Synuclein mRNA Translation in H4 Neuroglioblastoma Cells. [Related pubchem assays: 1829 (Project Summary), 1814 (Primary HTS)]; type: functional
# [5] = target: Glyceraldehyde-3-phosphate dehydrogenase (Homo sapiens, UniProt P04406)
# cells [6] = type: functional
# [7] = Vero E6 cell cytotoxicity, dose response, cytotoxicity control for non-replicating M. tuberculosis project, secondary assay (AID 492998); type: functional, VeroE6; conditions: Vero C1008
# [8] = target: T1, DNA repair protein RAD52 homolog (Homo sapiens, UniProt P43351); type: functional, biochemical
# T1 sequence (P43351 whole entry): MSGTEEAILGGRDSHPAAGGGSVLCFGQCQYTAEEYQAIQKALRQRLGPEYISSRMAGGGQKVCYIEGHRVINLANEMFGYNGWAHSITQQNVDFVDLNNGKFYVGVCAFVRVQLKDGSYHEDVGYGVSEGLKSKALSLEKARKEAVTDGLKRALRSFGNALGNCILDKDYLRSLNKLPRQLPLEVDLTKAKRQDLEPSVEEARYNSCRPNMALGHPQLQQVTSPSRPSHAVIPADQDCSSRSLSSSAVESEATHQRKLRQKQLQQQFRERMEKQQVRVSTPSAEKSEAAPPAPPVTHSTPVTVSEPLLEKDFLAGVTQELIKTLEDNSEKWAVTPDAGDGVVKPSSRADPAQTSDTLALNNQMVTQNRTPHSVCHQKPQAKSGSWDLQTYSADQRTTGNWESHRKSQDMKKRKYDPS
# [9] = HepG2 cell cytotoxicity, dose response, cytotoxicity control for non-replicating M. tuberculosis project (AID 489018); type: functional; conditions: Mycobacterium tuberculosis
# [10] = THP-1 cell cytotoxicity, dose response, cytotoxicity control for non-replicating M. tuberculosis project (AID 489025); type: functional
# Cytochrome P450 1A2 = target: T2, Cytochrome P450 1A2 (Homo sapiens, UniProt P05177);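 note: PubChem cytochrome P450 panel assay, CYP1A2 panel member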
# T2 sequence (P05177 whole entry): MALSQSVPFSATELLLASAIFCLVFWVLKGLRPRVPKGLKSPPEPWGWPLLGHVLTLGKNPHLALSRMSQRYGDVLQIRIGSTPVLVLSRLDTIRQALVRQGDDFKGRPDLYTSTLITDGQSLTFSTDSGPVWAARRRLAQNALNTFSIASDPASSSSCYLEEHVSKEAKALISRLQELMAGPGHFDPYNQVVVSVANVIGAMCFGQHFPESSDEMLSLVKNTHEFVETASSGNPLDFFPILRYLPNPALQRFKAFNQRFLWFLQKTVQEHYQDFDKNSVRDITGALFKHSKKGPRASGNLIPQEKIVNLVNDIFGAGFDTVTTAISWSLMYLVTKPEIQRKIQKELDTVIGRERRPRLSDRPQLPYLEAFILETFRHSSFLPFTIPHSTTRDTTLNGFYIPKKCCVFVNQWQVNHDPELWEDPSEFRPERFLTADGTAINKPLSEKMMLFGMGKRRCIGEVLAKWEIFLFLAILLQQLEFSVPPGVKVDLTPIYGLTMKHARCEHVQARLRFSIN
# Cytochrome P450 3A4 = Cytochrome P450 3A4 (Homo sapiens, UniProt P08684);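 note: CYP3A4 tested as one member of a cytochrome P450 panel screen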
# [11] = target: T3, Microphthalmia-associated transcription factor (Homo sapiens, UniProt O75030); assay: TRPM1 promoter luciferase signal decrease, dose response, MITF inhibitor project, cell-based, SK-MEL-5, cherry-picked, set 3 (AID 493073); type: functional
# T3 sequence (O75030 whole entry): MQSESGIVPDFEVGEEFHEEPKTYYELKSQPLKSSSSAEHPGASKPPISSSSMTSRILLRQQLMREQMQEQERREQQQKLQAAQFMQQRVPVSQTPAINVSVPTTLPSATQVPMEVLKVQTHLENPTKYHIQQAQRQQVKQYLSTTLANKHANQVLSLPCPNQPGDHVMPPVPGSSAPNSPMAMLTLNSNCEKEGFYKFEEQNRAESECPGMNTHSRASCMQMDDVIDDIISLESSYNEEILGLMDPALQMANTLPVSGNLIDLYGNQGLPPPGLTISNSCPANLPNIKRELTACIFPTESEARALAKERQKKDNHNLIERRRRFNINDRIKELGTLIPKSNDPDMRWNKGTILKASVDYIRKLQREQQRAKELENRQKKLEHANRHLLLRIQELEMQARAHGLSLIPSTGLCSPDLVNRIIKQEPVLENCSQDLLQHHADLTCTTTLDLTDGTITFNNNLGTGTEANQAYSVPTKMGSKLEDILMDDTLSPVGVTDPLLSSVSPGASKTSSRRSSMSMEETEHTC
# Streptococcus = assay: Group A Streptococcus viability loss, dose response, counter-screen for streptokinase expression inhibitor project, luminescence, BacTiterGlo (AID 1915); type: functional, organism-based;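 note: potency for reduction of bacterial viability or growth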
# [12] = tested on: Streptococcus sp. 'group A'; assay: growth inhibition of control SK(-) GAS strain, dose response, counter-screen for streptokinase expression inhibitor project, luminescence, kanamycin, BacTiterGlo, confirmation (AID 1900); type: functional, organism-based
# cells [13] = type: functional, cell-based
# cells [14] = type: functional, cell-based; remark: listed apart in the source
# INS1 = assay: beta cell apoptosis inhibitors, cytokine rescue, dose response, luminescence, retest (AID 449756); type: functional, cell-based; conditions: Rattus norvegicus;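 note: cell death triggered by IL-1 beta plus TNF-alpha plus IFN-gamma mixture; protective hits raise ATP signal compared with cytokine alone wells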
# [15] = NIH-3T3 fibroblast cytotoxicity, dose response, cytotoxicity control, cell-based, fluorescence, Alamar Blue, secondary assay (AID 2327); type: functional;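 note: NIH-3T3 mouse fibroblasts cultured with fluconazole at 8 µg/mL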
# [16] = C. albicans growth with fluconazole, confirmation, fluorescence, retest (AID 2467); type: functional, cell-based
# Aminopeptidase N = target: T4, Aminopeptidase N (Plasmodium falciparum FcB1/Columbia, UniProt O96935); assay: P. falciparum M1AAP inhibitors, biochemical, fluorogenic H-Leu-NHMec substrate, 1536-well (AID 1445); parameters: species or system Plasmodium falciparum 3D7, 3D7
# T4 sequence (O96935 whole entry): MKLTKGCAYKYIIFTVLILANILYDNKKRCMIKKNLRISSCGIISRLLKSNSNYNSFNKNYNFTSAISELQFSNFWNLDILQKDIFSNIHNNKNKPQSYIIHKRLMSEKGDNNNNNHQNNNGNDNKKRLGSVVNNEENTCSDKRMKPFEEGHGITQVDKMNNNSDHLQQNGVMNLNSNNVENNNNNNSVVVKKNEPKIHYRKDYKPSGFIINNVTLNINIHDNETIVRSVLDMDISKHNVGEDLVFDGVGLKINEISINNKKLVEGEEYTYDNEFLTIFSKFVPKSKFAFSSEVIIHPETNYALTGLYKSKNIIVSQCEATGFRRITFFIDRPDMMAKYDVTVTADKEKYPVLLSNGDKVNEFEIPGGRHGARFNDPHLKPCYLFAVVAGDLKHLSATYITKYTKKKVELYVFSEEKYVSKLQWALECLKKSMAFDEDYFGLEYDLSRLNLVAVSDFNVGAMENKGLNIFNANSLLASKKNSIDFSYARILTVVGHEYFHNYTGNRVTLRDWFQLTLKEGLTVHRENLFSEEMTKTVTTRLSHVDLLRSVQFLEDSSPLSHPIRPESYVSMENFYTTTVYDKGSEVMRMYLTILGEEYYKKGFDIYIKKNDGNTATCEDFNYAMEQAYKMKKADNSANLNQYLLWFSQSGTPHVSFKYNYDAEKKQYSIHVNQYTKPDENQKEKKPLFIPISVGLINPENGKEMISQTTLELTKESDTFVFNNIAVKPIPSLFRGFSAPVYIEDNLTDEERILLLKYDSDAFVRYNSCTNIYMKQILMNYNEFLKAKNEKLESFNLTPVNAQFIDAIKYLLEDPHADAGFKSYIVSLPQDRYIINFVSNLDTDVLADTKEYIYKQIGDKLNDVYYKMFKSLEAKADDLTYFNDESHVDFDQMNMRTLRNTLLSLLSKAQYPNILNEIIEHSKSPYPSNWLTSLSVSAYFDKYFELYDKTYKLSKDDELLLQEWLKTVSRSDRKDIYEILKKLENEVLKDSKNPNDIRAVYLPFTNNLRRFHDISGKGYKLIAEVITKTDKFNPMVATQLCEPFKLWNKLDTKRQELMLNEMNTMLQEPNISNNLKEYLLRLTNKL
# [17] = target: T5, Rac GTPase-activating protein 1 (Homo sapiens, UniProt Q9H0H5); assay: MgcRacGAP GTPase-activating activity inhibitors, confirmation, biochemical, ADP Hunter fluorescence, primary and confirmatory (AID 624330); type: functional
# T5 sequence (Q9H0H5 whole entry): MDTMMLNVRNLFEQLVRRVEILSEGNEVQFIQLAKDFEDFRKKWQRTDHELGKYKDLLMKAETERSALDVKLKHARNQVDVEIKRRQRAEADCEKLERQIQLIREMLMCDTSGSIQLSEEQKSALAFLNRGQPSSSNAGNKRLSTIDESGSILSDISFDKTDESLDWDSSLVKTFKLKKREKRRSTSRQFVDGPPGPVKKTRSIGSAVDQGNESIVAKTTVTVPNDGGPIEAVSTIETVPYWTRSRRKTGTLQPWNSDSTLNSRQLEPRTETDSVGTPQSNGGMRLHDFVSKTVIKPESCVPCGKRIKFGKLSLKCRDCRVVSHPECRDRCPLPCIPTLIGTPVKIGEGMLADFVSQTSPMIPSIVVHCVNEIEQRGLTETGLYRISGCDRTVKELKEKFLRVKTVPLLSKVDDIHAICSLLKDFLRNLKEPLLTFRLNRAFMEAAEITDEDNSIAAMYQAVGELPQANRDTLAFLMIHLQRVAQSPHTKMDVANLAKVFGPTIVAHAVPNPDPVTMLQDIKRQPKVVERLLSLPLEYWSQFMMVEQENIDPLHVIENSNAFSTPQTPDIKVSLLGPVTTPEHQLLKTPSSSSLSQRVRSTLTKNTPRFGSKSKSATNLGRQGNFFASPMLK
# [18] = target: T6, Alkaline phosphatase, tissue-nonspecific isozyme (Homo sapiens, UniProt P05186); assay: human TNAP enzyme inhibitors, SAR follow-up, biochemical, luminescent, dose response (AID 1056)
# T6 sequence (P05186 whole entry): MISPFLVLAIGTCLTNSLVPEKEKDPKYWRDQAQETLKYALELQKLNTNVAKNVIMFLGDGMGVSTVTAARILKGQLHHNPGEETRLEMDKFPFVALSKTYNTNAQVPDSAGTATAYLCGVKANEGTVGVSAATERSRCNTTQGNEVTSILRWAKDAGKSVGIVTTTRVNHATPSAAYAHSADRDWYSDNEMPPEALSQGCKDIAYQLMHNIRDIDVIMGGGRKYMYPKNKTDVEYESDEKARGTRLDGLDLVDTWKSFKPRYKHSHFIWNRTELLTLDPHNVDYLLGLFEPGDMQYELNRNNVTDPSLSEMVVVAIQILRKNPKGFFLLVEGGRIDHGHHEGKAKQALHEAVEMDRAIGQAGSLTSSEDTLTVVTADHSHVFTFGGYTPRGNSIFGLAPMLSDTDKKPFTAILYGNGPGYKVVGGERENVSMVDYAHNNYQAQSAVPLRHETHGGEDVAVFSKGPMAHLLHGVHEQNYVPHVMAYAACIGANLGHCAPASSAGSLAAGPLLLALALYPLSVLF
# Sequence of Glyceraldehyde-3-phosphate dehydrogenase (P04406 whole entry): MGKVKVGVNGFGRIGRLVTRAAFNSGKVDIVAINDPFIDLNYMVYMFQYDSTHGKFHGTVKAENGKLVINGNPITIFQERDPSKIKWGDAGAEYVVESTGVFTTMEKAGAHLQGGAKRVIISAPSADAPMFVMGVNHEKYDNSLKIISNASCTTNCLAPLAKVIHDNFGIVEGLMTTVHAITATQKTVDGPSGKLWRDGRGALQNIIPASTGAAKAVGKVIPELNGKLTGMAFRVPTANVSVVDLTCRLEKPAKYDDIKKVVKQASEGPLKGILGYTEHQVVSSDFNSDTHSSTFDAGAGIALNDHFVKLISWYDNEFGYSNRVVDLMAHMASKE
# Sequence of Eukaryotic translation initiation factor 4E (P63073 whole entry): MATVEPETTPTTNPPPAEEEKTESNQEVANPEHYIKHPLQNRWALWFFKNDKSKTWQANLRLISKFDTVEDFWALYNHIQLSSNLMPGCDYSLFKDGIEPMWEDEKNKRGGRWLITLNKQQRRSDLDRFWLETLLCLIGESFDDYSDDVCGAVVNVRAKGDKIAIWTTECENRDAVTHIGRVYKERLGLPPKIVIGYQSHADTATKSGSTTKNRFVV
# Sequence of Cytochrome P450 3A4 (P08684 whole entry): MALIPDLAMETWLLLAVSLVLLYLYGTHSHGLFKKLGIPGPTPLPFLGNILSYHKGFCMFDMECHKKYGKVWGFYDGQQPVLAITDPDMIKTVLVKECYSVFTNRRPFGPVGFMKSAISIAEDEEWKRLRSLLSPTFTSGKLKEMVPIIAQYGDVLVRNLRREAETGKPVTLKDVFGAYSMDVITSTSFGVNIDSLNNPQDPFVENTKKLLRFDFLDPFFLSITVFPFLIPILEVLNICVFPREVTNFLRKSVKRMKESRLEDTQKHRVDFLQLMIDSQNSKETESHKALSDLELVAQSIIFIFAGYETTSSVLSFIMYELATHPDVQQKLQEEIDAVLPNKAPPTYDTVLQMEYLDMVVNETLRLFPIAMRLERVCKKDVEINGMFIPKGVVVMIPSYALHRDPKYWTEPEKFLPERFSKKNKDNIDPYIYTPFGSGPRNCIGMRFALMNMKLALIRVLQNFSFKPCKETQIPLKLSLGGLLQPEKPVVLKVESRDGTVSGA
# Sequence of Glucose-6-phosphate 1-dehydrogenase (P11413 whole entry): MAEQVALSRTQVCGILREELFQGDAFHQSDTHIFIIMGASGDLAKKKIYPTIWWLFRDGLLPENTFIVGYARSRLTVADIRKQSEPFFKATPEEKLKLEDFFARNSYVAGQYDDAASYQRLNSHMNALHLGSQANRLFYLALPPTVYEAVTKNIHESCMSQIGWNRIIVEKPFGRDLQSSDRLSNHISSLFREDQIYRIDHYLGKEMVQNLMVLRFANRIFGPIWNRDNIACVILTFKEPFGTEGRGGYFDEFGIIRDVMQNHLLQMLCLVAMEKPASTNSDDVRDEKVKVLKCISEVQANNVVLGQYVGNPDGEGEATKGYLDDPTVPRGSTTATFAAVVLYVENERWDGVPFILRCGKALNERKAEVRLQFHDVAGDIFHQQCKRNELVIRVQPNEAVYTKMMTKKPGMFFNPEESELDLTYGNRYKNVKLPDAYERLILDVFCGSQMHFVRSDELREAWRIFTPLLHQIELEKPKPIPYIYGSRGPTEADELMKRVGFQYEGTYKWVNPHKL
# Sequence of Genome polyprotein (P29990 2492-3391 limits assumed): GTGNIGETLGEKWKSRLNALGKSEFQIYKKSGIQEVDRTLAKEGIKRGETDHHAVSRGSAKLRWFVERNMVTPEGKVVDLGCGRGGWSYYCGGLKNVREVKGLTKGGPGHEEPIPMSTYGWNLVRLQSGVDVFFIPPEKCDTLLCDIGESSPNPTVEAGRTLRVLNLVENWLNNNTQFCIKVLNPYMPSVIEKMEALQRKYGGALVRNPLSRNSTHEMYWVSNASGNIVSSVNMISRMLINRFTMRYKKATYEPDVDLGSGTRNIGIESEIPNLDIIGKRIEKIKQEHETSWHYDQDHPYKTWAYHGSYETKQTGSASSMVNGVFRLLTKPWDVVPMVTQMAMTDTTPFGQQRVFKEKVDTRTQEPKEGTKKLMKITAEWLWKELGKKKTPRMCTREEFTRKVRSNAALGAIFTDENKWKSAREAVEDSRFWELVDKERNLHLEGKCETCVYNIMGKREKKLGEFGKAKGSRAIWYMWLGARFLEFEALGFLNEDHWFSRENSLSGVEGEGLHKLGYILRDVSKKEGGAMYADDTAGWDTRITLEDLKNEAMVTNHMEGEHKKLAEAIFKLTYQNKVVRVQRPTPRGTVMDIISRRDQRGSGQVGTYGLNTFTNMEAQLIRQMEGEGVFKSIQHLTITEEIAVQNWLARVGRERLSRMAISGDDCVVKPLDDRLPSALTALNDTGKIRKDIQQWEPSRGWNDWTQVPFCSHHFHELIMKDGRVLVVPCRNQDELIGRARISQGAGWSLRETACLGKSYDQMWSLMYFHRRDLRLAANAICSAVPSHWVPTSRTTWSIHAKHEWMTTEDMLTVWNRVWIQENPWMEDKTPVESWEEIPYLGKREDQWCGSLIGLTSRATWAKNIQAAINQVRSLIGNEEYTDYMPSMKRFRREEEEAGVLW
smiles,measurement,setting,value
COc1cc(CNc2ccc(N3CCCC3)cc2)ccc1OCc1ccccc1F,CC50,Vero,> 40 µM (active)
same,IC50,[1],> 80 µM (inactive)
same,IC50,Genome polyprotein,54.2 µM (active)
same,IC50,[2],> 64 µM (inactive)
O=C(CSc1nnc2ccc3ccccc3n12)N1CCOCC1,EC50,[3],14.6 µM (active)
same,EC50,H4,14.4 µM (inconclusive)
same,EC50,[4],> 120 µM (not active)
Cc1cc(C(=O)Nc2ccc(O)c(C(=O)O)c2)c(C)o1,IC50,[5],> 100 µM (not active)
CCc1nccn1CCC(=O)N1CCCC(N2CCN(c3cccc(Cl)c3)CC2)C1 (stereo unspecified),EC50,[3],25.5 µM (active)
same,EC50,H4,16.3 µM (active)
same,EC50,[4],> 120 µM (not active)
O=C1C(Cl)=C(N2CCN(Cc3ccccc3)CC2)C(=O)N1c1ccc(C(F)(F)F)cc1,IC50,[5],> 50 µM (inconclusive)
CN(C)CC/C=C1\c2ccccc2Sc2cc(F)c(Cl)cc21,IC50,cells [6],20.8 µM (active)
same,CC50,[7],> 20 µM (active)
same,AC50,[8],15.1 µM (active)
same,CC50,[9],> 20 µM (active)
same,CC50,[10],17 µM (active)
Cc1ccc(Oc2ncc(CN3CCOCC3)s2)cc1,AC50,Cytochrome P450 1A2,22.4 µM (inconclusive)
same,AC50,Cytochrome P450 3A4,20 µM (inconclusive)
same,EC50,[3],13.1 µM (active)
same,EC50,H4,40.4 µM (active)
same,EC50,[4],13.1 µM (active)
Cc1nc(C)c(C(=O)N/N=C/c2cc(Br)ccc2O)s1,AC50,[11],3.66 µM (active)
same,EC50,Streptococcus,8.73 µM (active)
same,EC50,[12],2.35 µM (active)
same,EC50,cells [13],> 350 µM (not active)
same,EC50,cells [14],99.3 µM (active)
same,AC50,INS1,2.63 µM (active)
same,EC50,[15],> 150 µM (inactive)
same,EC50,[16],1.34 µM (active)
same,IC50,Aminopeptidase N,12.9 µM (active)
C/C(=N\NC(=O)c1nc2ccccn2c1C)c1ccco1,EC50,[3],> 120 µM (not active)
same,EC50,H4,15.7 µM (active)
same,EC50,[4],14.4 µM (active)
Cc1cc(C)nc(SCC(=O)c2ccc(O)c(O)c2)n1,IC50,[17],30.6 µM (active)
same,IC50,[18],5.76 µM (active)
